Results: patent publication US20250340545A1, “TETRAHYDROISOQUINOLINE COMPOUND, PREPARATION METHOD THEREFOR, PHARMACEUTICAL COMPOSITION CONTAINING SAID COMPOUND, AND USE THEREOF” (SHANGHAI INSTITUTE OF MATERIA MEDICA, CHINESE ACADEMY OF …, priority 2022, published 2025)

What was measured:
[1] = molecular target: T1, RXFP4 (HRXFP4 CHO cells) (Homo sapiens, UniProt Q8TDU9); assay: Ligand receptor affinity detection (Eu-R3/I5 competition on HRXFP4 CHO cells); assay type: binding; conditions: for Ki: 5 nM Eu-R3/I5, 1 hour room temperature, read-out: pKi ± S.E.M. (converted); for Span ± S.E.M. (% R3/I5): 5 nM Eu-R3/I5, relative to R3/I5
T1 construct: expressed in transfected cells; host or cells: CHO
T1 sequence (Q8TDU9 whole entry): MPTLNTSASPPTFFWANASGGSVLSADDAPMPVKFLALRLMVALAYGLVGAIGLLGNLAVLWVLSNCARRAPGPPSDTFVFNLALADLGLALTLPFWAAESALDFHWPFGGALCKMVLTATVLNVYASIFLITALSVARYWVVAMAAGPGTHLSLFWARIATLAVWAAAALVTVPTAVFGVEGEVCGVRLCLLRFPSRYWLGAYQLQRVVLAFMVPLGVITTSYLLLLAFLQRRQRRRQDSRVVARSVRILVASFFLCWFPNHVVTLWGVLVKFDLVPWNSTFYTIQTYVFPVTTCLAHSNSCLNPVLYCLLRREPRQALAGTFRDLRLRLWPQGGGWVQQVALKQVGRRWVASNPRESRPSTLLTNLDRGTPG
Method: 2. Detection Method: Ligand Receptor Affinity Detection
Stably transfected HRXFP4 CHO cells and Eu—R3/I5 (lanthanide element europium labeled chimeric peptide R3/I5), BMG POLARstar reader (BMG Labtech), and test compound.
HRXFP4 CHO was introduced into a 96 well plate at 80000 cells per well. After 24 hours of cell culture in the incubator, discarded the supernatant, and washed once with PBS, then a binding buffer containing 1% BSA was added and incubated at room temperature for 1 hour. The cell plate was then washed once with PBS, followed by the addition of different concentrations of positive controls and test compounds, and incubated at room temperature with 5 nM Eu—R3/I5 for 1 hour.
After washing the cell plate once with PBS, an enhancement solution was added. After 45 minutes, the fluorescence value was measured using a BMG POLARstar reader (excitation wavelength of 340 nm, detection emission wavelength of 614 nm).

[2] = molecular target: T2, human RXFP4 (hRXFP4-CHO stably transfected cell line) (Homo sapiens, UniProt Q8TDU9); assay: Measurement of intracellular cAMP concentration (in vitro RXFP4 agonist activity); assay type: cell-based; conditions: hRXFP4-CHO cells, 500 nM Forskolin; for Emax ± S.E.M. (% INSL5): relative to INSL5
T2 construct: expressed in transfected cells; host or cells: CHO
T2 sequence (Q8TDU9 whole entry): as above
Method: 1. Detection Method: Measurement of Intracellular cAMP Concentration
CAMP detection kit (PerkinElmer), cell culture box (Thermo Fisher Scientific), EnVision multifunctional enzyme-linked immunosorbent assay (PerkinElmer), Forskolin (Sigma Aldrich), IBMX (Sigma Aldrich), DSMO (Sigma Aldrich), hINSL5 (Genova, human insulin-like peptide 5), hRXFP4-CHO stably transfected cell line for stable expression of human RXFP4, and test compound.
Stably transfected hRXFP4-CHO cells were seeded at 2.5×10^5 cells/mL the day before the experiment to maintain a growth density of 70%-80% in the culture dish the next day. On the day of the experiment, cells were digested with trypsin free digestion solution or 0.02% EDTA PBS solution, centrifugated, the supernatant was discarded, and cAMP experimental buffer (0.5 mM IBMX+5 mM HEPES+0.1% BSA) was prepared using 1×HBSS (calcium and magnesium free) solution. The cells were resuspended and inoculated to a 384 well plate at 4000 cells per well. The compound which was diluted with DMSO to different concentrations were added to the above 384 well plate. At the same time, 500 nM Forskolin was added and incubated at room temperature for 40 minutes. Then Eu cAMP and ULight anti cAMP working solutions were added according to the cAMP detection kit instructions. After incubation at room temperature for 40 minutes, an EnVision multifunctional enzyme-linked immunosorbent assay reader was used to read the results (excitation wavelength of 320 or 340 nm, detection emission wavelength of 665 nm).

| Ki [1] [nM] | EC50 ([2]; 40 minutes room temperature) [nM] | Emax ± S.E.M. (% INSL5) [2] [% INSL5] | Span ± S.E.M. (% R3/I5) [1] [% R3/I5] | pEC50 ± S.E.M. ([2]; 40 minutes room temperature) | SMILES |
| --- | --- | --- | --- | --- | --- |
| > 100000 | – | – | – | – | COc1cc2c(cc1OC)C(Cc1c[nH]c3ccccc13)N(CC1CCOCC1)CC2 (stereo not drawn) [Compound A83] |
| > 100000 | 10000 | 58.19 ± 7.80 | – | – | CCOc1cc2c(cc1OC)CCN(C(=O)N1CCOCC1)C2CCc1c[nH]c2ncccc12 (stereo not drawn) [Compound A69, (1-(2-(1H-pyrrolo[2,3-b]pyridin-3-yl)ethyl)-7-ethoxy-6-methoxy-3,4-dihydroisoquinolin-2(1H)-yl) (morpholino)methanone] |
| > 100000 | 10200 | 56.43 ± 4.70 | – | – | CCOc1cc2c(cc1OC)CCN(C(=O)N1CC[S+]([O-])CC1)C2CCc1c[nH]c2ccc(OC)cc12 (stereo not drawn) [Compound A5, (7-ethoxy-6-methoxy-1-(2-(5-methoxy-1H-indol-3-yl)ethyl)-3,4-dihydroisoquinolin-2(1H)-yl)(1-oxothiomorpholinyl)methanone] |
| > 100000 | – | – | – | – | CCOc1cc2c(cc1OC)CCN(C(=O)c1cscn1)[C@H]2CCc1c[nH]c2ccc(OC)cc12 [Compound A80, (S)-(7-ethoxy-6-methoxy-1-(2-(5-methoxy-1H-indol-3-yl)ethyl)-3,4-dihydroisoquinolin-2(1H)-yl) (thiazol-4-yl)methanone] |
| > 100000 | 933 | 60.14 ± 10.64 | – | – | CCOc1cc2c(cc1OC)CCN(C(=O)N1CCOCC1)[C@@H]2CCc1c[nH]c2ccc(OC)cc12 [(R)-A1, (R)-(7-ethoxy-6-methoxy-1-(2-(5-methoxy-1H-indol-3-yl)ethyl)-3,4-dihydroisoquinolin-2(1H)-yl)(morpholino)methanone] |
| > 100000 | 447 | 92.58 ± 7.46 | – | – | CCOc1cc2c(cc1OC)CCN(C(=O)N1CCOCC1)C2CCc1c[nH]c2c(C)cc(OC)cc12 (stereo not drawn) [Compound A58, (7-ethoxy-6-methoxy-1-(2-(5-methoxy-7-methyl-1H-indol-3-yl)ethyl)-3,4-dihydroisoquinolin-2(1H)-yl)(morpholino) methanone] |
| 209 | 204 | 101.82 ± 9.08 | 86.26 ± 6.71 | – | CCOc1cc2c(cc1OC)CCN(C(=O)N1CCC(F)CC1)C2CCc1c[nH]c2ccc(OC)cc12 (stereo not drawn) [Compound A3, (4-fluoropiperidin-1-yl) (7-ethoxy-6-methoxy-1-(2-(5-methoxy-1H-indol-3-yl)ethyl)-3,4-dihydroisoquinolin-2(1H)-yl)methanone] |
| > 100000 | 14800 | 44.09 ± 5.25 | – | – | CCOc1cc2c(cc1OC)CCN(C(=O)c1ccccn1)C2CCc1c[nH]c2ccc(OC)cc12 (stereo not drawn) [Compound A9, (7-ethoxy-6-methoxy-1-(2-(5-methoxy-1H-indol-3-yl)ethyl)-3,4-dihydroisoquinolin-2(1H)-yl) (pyridin-2-yl)methanone] |
| 631 | 57.5 | 62.00 ± 5.42 | 66.34 ± 7.29 | – | CCOc1cc2c(cc1OC)CCN(C(=O)N1CCC(F)(F)CC1)C2CCc1c[nH]c2ccc(OC)cc12 (stereo not drawn) [Compound A4, (4,4-difluoropiperidin-1-yl) (7-ethoxy-6-methoxy-1-(2-(5-methoxy-1H-indol-3-yl)ethyl)-3,4-dihydroisoquinolin-2(1H)-yl)methanone] |
| 1700 | 417 | 72.49 ± 8.04 | 75.02 ± 7.56 | – | CCOc1cc2c(cc1OC)CCN(C(=O)N1CCOCC1)C2CCc1c[nH]c2c(CC)cccc12 (stereo not drawn) [Compound A60, (7-Ethoxy-1-(2-(7-ethyl-1H-indol-3-yl)ethyl)-6-methoxy-3,4-dihydroisoquinolin-2(1H)-yl) (morpholino)methanone] |
| > 100000 | 437 | 25.96 ± 5.50 | – | – | COc1cc2c(cc1OC)C(CCc1c[nH]c3ccccc13)N(C(=O)c1ccncc1)CC2 (stereo not drawn) [Compound A77, (1-(2-(1H-indol-3-yl)ethyl)-6,7-dimethoxy-3,4-dihydroisoquinolin-2(1H)-yl)(pyridin-4-yl)methanone] |
| 58.9 | – | 98.76 ± 5.71 | 81.87 ± 4.47 | 7.24 ± 0.12 | CCOc1cc2c(cc1OC)CCN(C(=O)N1CCOCC1)[C@H]2CCc1c[nH]c2ccc(OC)cc12 [(S)-A1, (S)-(7-ethoxy-6-methoxy-1-(2-(5-methoxy-1H-indol-3-yl)ethyl)-3,4-dihydroisoquinolin-2(1H)-yl)(morpholino)methanone] |
| 129 | 27.5 | 82.15 ± 4.95 | 92.06 ± 3.95 | – | CCOc1cc2c(cc1OC)CCN(C(=O)N1CCOCC1)C2CCc1c[nH]c2ccc(C#N)cc12 (stereo not drawn) [Compound A57, 3-(2-(7-ethoxy-6-methoxy-2-(morpholine-4-carbonyl)-1,2,3,4-tetrahydroisoquinolin-1-yl)ethyl)-1H-indole-5-carbonitrile] |
| 148 | 87.1 | 87.64 ± 4.58 | 88.98 ± 6.07 | – | CCOc1cc2c(cc1OC)CCN(C(=O)N1CCOCC1)C2CCc1c[nH]c2ccc(OC)cc12 (stereo not drawn) [Compound A1, (7-ethoxy-6-methoxy-1-(2-(5-methoxy-1H-indol-3-yl)ethyl)-3,4-dihydroisoquinolin-2(1H)-yl) (morpholino)methanone] |
| > 100000 | 3160 | 43.69 ± 7.43 | – | – | COc1cc2c(cc1OC)[C@H](CCc1c[nH]c3cc(C)ccc13)N(C(=O)C1CCOCC1)CC2 [Compound A76, (S)-(6,7-dimethoxy-1-(2-(6-methyl-1H-indol-3-yl)ethyl)-3,4-dihydroisoquinolin-2(1H)-yl) (tetrahydro-2H-pyran-4-yl)methanone] |
| > 100000 | 9330 | 51.74 ± 6.72 | – | – | CCOc1cc2c(cc1OC)CCN(C(=O)N1CCS(=O)(=O)CC1)C2CCc1c[nH]c2ccc(OC)cc12 (stereo not drawn) [Compound A6, (1,1-dioxothiomorpholino) (7-ethoxy-6-methoxy-1-(2-(5-methoxy-1H-indol-3-yl)ethyl)-3,4-dihydroisoquinolin-2(1H)-yl)methylmethanone] |
| 851 | 427 | 82.33 ± 8.47 | 81.61 ± 7.65 | – | COc1ccc2[nH]cc(CCC3c4cc(OCc5ccccc5)c(OC)cc4CCN3C(=O)N3CCOCC3)c2c1 (stereo not drawn) [Compound A30, (7-(benzyloxy)-6-methoxy-1-(2-(5-methoxy-1H-indol-3-yl)ethyl)-3,4-dihydroisoquinolin-2(1H)-yl) (morpholino)methanone] |
